Test results published in PMC9554870, “Mesoporous Silica Nanoparticles Improve Oral Delivery of Antitubercular Bicyclic Nitroimidazoles” (ACS Biomaterials Science & Engineering, 2021).
≈ marks a conversion by molar mass, not a printed value.

Experiments:
[1] = Aqueous (saturated water) solubility by LC-UV; assay type: physicochemical; settings: deionized water, 37 °C, encapsulated samples 10% w/w, n = 3
Method: The solubility of pretomanid and MCC7433 was measured before and after loading into nanoparticles by using Shimadzu LCMS-2020 (Kyoto, Japan) with a variable-wavelength UV–visible detector. Briefly, 0.5 mg of compound equivalent particles (or 5 mg of 10 wt % compound loaded nanoparticles) were dispersed in 750 μL of deionized water. Samples were incubated at 37 °C on a rotator for 24 and 48 h. Samples were then centrifuged at 12 000 rpm for 20 min. The supernatant was collected and centrifuged for another round at 12 000 rpm, 20 min before being analyzed by LC-UV. The mobile phase was 0.05% formic acid in water (solvent A) and 0.05% formic acid in acetonitrile (solvent B). LC-MS condition: column Zorbax Eclipse XDB-Phenyl, 3.0 × 100 mm, 3.5 μm; column temperature: 40 °C; flow: 1 mL/min; injection volume: 5 μL; gradient timetable: 0.00 min, 5% B; 0.50 min, 5% B; 3.00 min, 100% B; 4.2 min, 100% B; 5.00 min, 5% B.

[2] = tested on: M. tuberculosis H37Rv strain; experiment: M. tuberculosis H37Rv minimum inhibition assay (resazurin reduction microplate assay); assay type: cell-based; settings: Mycobacterium tuberculosis, lowest concentration with >90% inhibition of growth, free compounds predissolved in DMSO, nanoformulations dispersed in assay media, n = 4–6, read-out: MIC90%Inhib H37Rv
in vivo = settings: male, CD-1, mouse, po, 20 mg/kg
[3] = design: method as in PMID 30562958; settings: vorinostat encapsulated within pristine and functionalized MCM-41; cited from earlier work

| Compound | solubility at 24 h [1] [µg/mL] | MIC90 [2] [µg/mL] | Tmax (in vivo) [h] | half-life (in vivo) [h] | fold improvement of solubility compared to the free drug [3] |
| --- | --- | --- | --- | --- | --- |
| O=c1c2nc([N+](=O)[O-])cn2ccn1Cc1ccc(OC(F)(F)F)cc1 [MCC7433] | 0.33 (≈ 0.932 µM) | 0.25 to 0.5 (≈ 0.706 to 1.41 µM) | 5.33 | 3.21 |  |
| NNC(=O)c1ccncc1 [isoniazid] |  | 0.04 (≈ 0.292 µM) |  |  |  |
| O=[N+]([O-])c1cn2c(n1)OC[C@@H](OCc1ccc(OC(F)(F)F)cc1)C2 [pretomanid] | 15.5 (≈ 43.1 µM) | 0.25 (≈ 0.696 µM) |  |  |  |
| O=C(CCCCCCC(=O)Nc1ccccc1)NO [vorinostat] |  |  |  |  | 2.6–4.3 fold |
